Reference: PubChem BioAssay AID1845205 (Molecular Pharmacology Branch, DTP, NCI, 2023)

Tested on: MPNST multicellular tumor spheroids, viability % test/control
Test: Anticancer human tumor MPNST cell line growth inhibition;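 note: spheroids exposed to agents for seven days after three days of growth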;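 for viability, T/C: luminescence signal used as surrogate for viable cell amount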
Conditions: for IC50: curve of first compound; for viability, T/C: stronger effect = lower value
Procedure, shortened: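 Single agents and combinations were tested on spheroids built from tumor cells plus HUVEC and hMSC, at half-log dilutions starting at or near clinical Cmax, else 10 microM; final DMSO 0.25% (v/v).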

[1] = second compound 0.003 µM, first compound 0.00949 µM
[2] = second compound 0.003 µM, first compound 0.03 µM
[3] = second compound 0.003 µM, first compound 0.0949 µM
[4] = second compound 0.003 µM, first compound 0.3 µM
[5] = second compound 0.003 µM, first compound 0.949 µM
[6] = second compound 0.003 µM, first compound 3 µM
[7] = second compound 0.00949 µM, first compound 0.00949 µM
[8] = second compound 0.00949 µM, first compound 0.03 µM
[9] = second compound 0.00949 µM, first compound 0.0949 µM
[10] = second compound 0.00949 µM, first compound 0.3 µM
[11] = second compound 0.00949 µM, first compound 0.949 µM
[12] = second compound 0.00949 µM, first compound 3 µM
[13] = second compound 0.03 µM, first compound 0.00949 µM
[14] = second compound 0.03 µM, first compound 0.03 µM
[15] = second compound 0.03 µM, first compound 0.0949 µM
[16] = second compound 0.03 µM, first compound 0.3 µM
[17] = second compound 0.03 µM, first compound 0.949 µM
[18] = second compound 0.03 µM, first compound 3 µM
[19] = second compound 0.0949 µM, first compound 0.00949 µM
[20] = second compound 0.0949 µM, first compound 0.03 µM
[21] = second compound 0.0949 µM, first compound 0.0949 µM
[22] = second compound 0.0949 µM, first compound 0.3 µM
[23] = second compound 0.0949 µM, first compound 0.949 µM
[24] = second compound 0.0949 µM, first compound 3 µM
[25] = second compound 0.3 µM, first compound 0.00949 µM
[26] = second compound 0.3 µM, first compound 0.03 µM
[27] = second compound 0.3 µM, first compound 0.0949 µM
[28] = second compound 0.3 µM, first compound 0.3 µM
[29] = second compound 0.3 µM, first compound 0.949 µM
[30] = second compound 0.3 µM, first compound 3 µM

For `CNCc1ccc(-c2cc(-c3nc(-c4ccc(S(=O)(=O)C(C)C)cc4)cnc3N)on2)cc1` + Cn1nnc2c(C(N)=O)ncn2c1=O, the IC50 (second compound 1 µM) was greater than 3 µM, the IC50 (second compound 3.16 µM) was greater than 3 µM and the IC50 (second compound 10 µM) was greater than 3 µM. The IC50 (second compound 31.6 µM) was greater than 3 µM, the IC50 (second compound 100 µM) was greater than 3 µM and the viability, T/C (second compound 1 µM, first compound 0.00949 µM) was 110%. The viability, T/C (second compound 1 µM, first compound 0.03 µM) was 102%, the viability, T/C (second compound 1 µM, first compound 0.0949 µM) was 83% and the viability, T/C (second compound 1 µM, first compound 0.3 µM) was 77.9%. It also gave a viability, T/C (second compound 1 µM, first compound 0.949 µM) of 63.1%, a viability, T/C (second compound 1 µM, first compound 3 µM) of 63.8% and a viability, T/C (second compound 3.16 µM, first compound 0.00949 µM) of 125%. It also gave a viability, T/C (second compound 3.16 µM, first compound 0.03 µM) of 120%, a viability, T/C (second compound 3.16 µM, first compound 0.0949 µM) of 97.9% and a viability, T/C (second compound 3.16 µM, first compound 0.3 µM) of 75.3%. For the same compound, the viability, T/C (second compound 3.16 µM, first compound 0.949 µM) was 64.8%, the viability, T/C (second compound 3.16 µM, first compound 3 µM) was 61.1% and the viability, T/C (second compound 10 µM, first compound 0.00949 µM) was 95.6%. It also gave a viability, T/C (second compound 10 µM, first compound 0.03 µM) of 114%, a viability, T/C (second compound 10 µM, first compound 0.0949 µM) of 98.5% and a viability, T/C (second compound 10 µM, first compound 0.3 µM) of 74.8%. It also gave a viability, T/C (second compound 10 µM, first compound 0.949 µM) of 71.8%, a viability, T/C (second compound 10 µM, first compound 3 µM) of 69.5% and a viability, T/C (second compound 31.6 µM, first compound 0.00949 µM) of 105%. The viability, T/C (second compound 31.6 µM, first compound 0.03 µM) was 81.1%, the viability, T/C (second compound 31.6 µM, first compound 0.0949 µM) was 79.8% and the viability, T/C (second compound 31.6 µM, first compound 0.3 µM) was 66.6%. The viability, T/C (second compound 31.6 µM, first compound 0.949 µM) was 58%, the viability, T/C (second compound 31.6 µM, first compound 3 µM) was 64.3% and the viability, T/C (second compound 100 µM, first compound 0.00949 µM) was 92.1%. It also gave a viability, T/C (second compound 100 µM, first compound 0.03 µM) of 95.7%, a viability, T/C (second compound 100 µM, first compound 0.0949 µM) of 83% and a viability, T/C (second compound 100 µM, first compound 0.3 µM) of 61.4%. For the same compound, the viability, T/C (second compound 100 µM, first compound 0.949 µM) was 58.5% and the viability, T/C (second compound 100 µM, first compound 3 µM) was 61.7%.

For `CNCc1ccc(-c2cc(-c3nc(-c4ccc(S(=O)(=O)C(C)C)cc4)cnc3N)on2)cc1` + CC[C@@]1(O)C(=O)OCc2c1cc1n(c2=O)Cc2cc3c(CN(C)C)c(O)ccc3nc2-1, the IC50 (second compound 0.003 µM) was greater than 3 µM, the IC50 (second compound 0.00949 µM) was greater than 3 µM and the IC50 (second compound 0.03 µM) was greater than 3 µM. It also gave an IC50 (second compound 0.0949 µM) greater than 3 µM, an IC50 (second compound 0.3 µM) of less than 0.00949 µM and a viability, T/C [1] of 104%. It also gave a viability, T/C [2] of 99.3%, a viability, T/C [3] of 71.8% and a viability, T/C [4] of 61.4%. It also gave a viability, T/C [5] of 64.3%, a viability, T/C [6] of 61.7% and a viability, T/C [7] of 75.6%. For the same compound, the viability, T/C [8] was 74.3%, the viability, T/C [9] was 59.7% and the viability, T/C [10] was 58%. It also gave a viability, T/C [11] of 60.3%, a viability, T/C [12] of 66.6% and a viability, T/C [13] of 61.9%. For the same compound, the viability, T/C [14] was 55.1%, the viability, T/C [15] was 53.8% and the viability, T/C [16] was 57.1%. It also gave a viability, T/C [17] of 63.7%, a viability, T/C [18] of 64.9% and a viability, T/C [19] of 57.7%. It also gave a viability, T/C [20] of 54.8%, a viability, T/C [21] of 56.8% and a viability, T/C [22] of 64.7%. The viability, T/C [23] was 58.1%, the viability, T/C [24] was 70.7% and the viability, T/C [25] was 46.1%. For the same compound, the viability, T/C [26] was 45%, the viability, T/C [27] was 48.8% and the viability, T/C [28] was 50%. For the same compound, the viability, T/C [29] was 55.5% and the viability, T/C [30] was 52.7%.

`Cc1cc(C)c(CNC(=O)c2cc(-c3ccc(CN4CCOCC4)cc3)cc3c2cnn3C2CCCC2)c(=O)[nH]1` + COc1cc2c(cc1O)CCNC21CSC2c3c(OC(C)=O)c(C)c4c(c3C(COC1=O)N1C(O)C3Cc5cc(C)c(OC)c(O)c5C(C21)N3C)OCO4 gave an IC50 (second compound 30 pM) greater than 10 µM, an IC50 (second compound 94.9 pM) greater than 10 µM and an IC50 (second compound 0.0003 µM) greater than 10 µM. It also gave an IC50 (second compound 0.000949 µM) of less than 0.0316 µM, an IC50 (second compound 0.003 µM) of less than 0.0316 µM and a viability, T/C (second compound 30 pM, first compound 0.0316 µM) of 106%. For the same compound, the viability, T/C (second compound 30 pM, first compound 0.1 µM) was 93.7%, the viability, T/C (second compound 30 pM, first compound 0.316 µM) was 85.2% and the viability, T/C (second compound 30 pM, first compound 1 µM) was 101%. It also gave a viability, T/C (second compound 30 pM, first compound 3.16 µM) of 113%, a viability, T/C (second compound 30 pM, first compound 10 µM) of 99.3% and a viability, T/C (second compound 94.9 pM, first compound 0.0316 µM) of 104%. For the same compound, the viability, T/C (second compound 94.9 pM, first compound 0.1 µM) was 89.8%, the viability, T/C (second compound 94.9 pM, first compound 0.316 µM) was 71% and the viability, T/C (second compound 94.9 pM, first compound 1 µM) was 102%. For the same compound, the viability, T/C (second compound 94.9 pM, first compound 3.16 µM) was 120%, the viability, T/C (second compound 94.9 pM, first compound 10 µM) was 68.9% and the viability, T/C (second compound 0.0003 µM, first compound 0.0316 µM) was 86%. The viability, T/C (second compound 0.0003 µM, first compound 0.1 µM) was 80.3%, the viability, T/C (second compound 0.0003 µM, first compound 0.316 µM) was 83.3% and the viability, T/C (second compound 0.0003 µM, first compound 1 µM) was 98%. The viability, T/C (second compound 0.0003 µM, first compound 3.16 µM) was 91.4%, the viability, T/C (second compound 0.0003 µM, first compound 10 µM) was 70.7% and the viability, T/C (second compound 0.000949 µM, first compound 0.0316 µM) was 41.3%. For the same compound, the viability, T/C (second compound 0.000949 µM, first compound 0.1 µM) was 53.5%, the viability, T/C (second compound 0.000949 µM, first compound 0.316 µM) was 46% and the viability, T/C (second compound 0.000949 µM, first compound 1 µM) was 43.6%. For the same compound, the viability, T/C (second compound 0.000949 µM, first compound 3.16 µM) was 44.3%, the viability, T/C (second compound 0.000949 µM, first compound 10 µM) was 41.6% and the viability, T/C (second compound 0.003 µM, first compound 0.0316 µM) was 13.1%. The viability, T/C (second compound 0.003 µM, first compound 0.1 µM) was 12.2%, the viability, T/C (second compound 0.003 µM, first compound 0.316 µM) was 12.1% and the viability, T/C (second compound 0.003 µM, first compound 1 µM) was 13.5%. The viability, T/C (second compound 0.003 µM, first compound 3.16 µM) was 12.6% and the viability, T/C (second compound 0.003 µM, first compound 10 µM) was 9.87%.

For `Cc1sc2c(c1C)C(c1ccc(Cl)cc1)=NC(CC(=O)Nc1ccc(O)cc1)c1nnc(C)n1-2` (stereo not given) + CC[C@@]1(O)C(=O)OCc2c1cc1n(c2=O)Cc2cc3c(CN(C)C)c(O)ccc3nc2-1, the IC50 (second compound 0.003 µM) was 1.86 µM, the IC50 (second compound 0.00949 µM) was greater than 3 µM and the IC50 (second compound 0.03 µM) was 2.5 µM. For the same compound, the IC50 (second compound 0.0949 µM) was 1.21 µM, the IC50 (second compound 0.3 µM) was 0.0106 µM and the viability, T/C [1] was 113%. It also gave a viability, T/C [2] of 98.3%, a viability, T/C [3] of 85.1% and a viability, T/C [4] of 66.9%. The viability, T/C [5] was 51.9%, the viability, T/C [6] was 48.4% and the viability, T/C [7] was 82%. The viability, T/C [8] was 85.7%, the viability, T/C [9] was 81.8% and the viability, T/C [10] was 62.4%. The viability, T/C [11] was 54.5%, the viability, T/C [12] was 50.5% and the viability, T/C [13] was 66.8%. It also gave a viability, T/C [14] of 64.1%, a viability, T/C [15] of 62% and a viability, T/C [16] of 58.1%. For the same compound, the viability, T/C [17] was 51.9%, the viability, T/C [18] was 49.4% and the viability, T/C [19] was 58.4%. For the same compound, the viability, T/C [20] was 60.1%, the viability, T/C [21] was 60.4% and the viability, T/C [22] was 56.3%. The viability, T/C [23] was 48.8%, the viability, T/C [24] was 45.4% and the viability, T/C [25] was 50.6%. It also gave a viability, T/C [26] of 47.8%, a viability, T/C [27] of 47.2% and a viability, T/C [28] of 44.9%. For the same compound, the viability, T/C [29] was 37.9% and the viability, T/C [30] was 33.1%.
